Experimental findings from patent EP4745138A1, “THIO-GLUTARIMIDO ISOINDOLINONE DERIVATIVE, BIFUNCTIONAL PROTEIN DEGRADER CONTAINING SAME, AND USES THEREOF” (Gluetacs Therapeutics (Shanghai) Co., Ltd., priority 2023, dated 2025) are described below.

For test [1], the system named is SW620. Nature of the test: Tumor cell proliferation inhibition (CellTiter-Meiluncell Luminescent Cell Viability Assay). It counts as cell-based. The note with it: Homo sapiens, 96 hours; for inhibition at 0.01 µM: SW-620, 10 nM, read-out: Inhibition Rate at 10 nM (%); for inhibition at 0.5 µM: SW-620, 500 nM, read-out: Inhibition Rate at 500 nM (%). On the procedure:
(§1) The tumor cells used herein were cultured in a cell culture medium listed in table 3 at 37°C in an incubator with 5% CO2. Prior to experimentation, all cell lines used were correctly identified by STR profiling, and tested negative for mycoplasma contamination using a mycoplasma detection kit through routine screenings. Table 3. Tumor cells and cell culture medium used in the present disclosure
(§2) The IC50 values of the compounds of the present disclosure (including the compounds in Table 1, Table 2, and Examples) were determined using the CellTiter-Meiluncell Luminescent Cell Viability Assay Kit from Dalian Meilun Biotech Co., Ltd. The detailed procedure is as follows: Tumor cells were seeded in 96-well cell culture plates at the densities specified in Table 4. On the following day, the test compounds of the present disclosure were subjected to serial dilution. […] Subsequently, 0.5 µL of the test compound dilution was transferred into the 96-well plate containing the cells, with each well containing 100 µL of cell culture medium. […] Into the 96-well plate, the diluted test compounds and corresponding detection reagents were added, resulting in final test compound concentrations of 500 nM and 10 nM, respectively. The experimental procedure is described below using the diluted 2 µM test compound as an example.
(§3) 0.5 µL of the aforementioned diluted compound of the present disclosure (including the compounds in Table 1, Table 2, and Examples) was added to the seeded cells in 100 µL of medium, yielding a final test compound concentration of 10 nM. After the cells were treated with the compounds of the present disclosure for a specified period, the cell viability assay reagent was added to the culture medium according to the kit's instructions to determine cell viability. […] All controls were treated using the same procedure as the compounds of the present disclosure. […] Seeding protocol and treatment time for tumor cells

The subject of test [2] is MM.1S. The description is as above. Type of test: cell-based. The note with it: Homo sapiens, MM1.S; for inhibition at 0.01 µM: read-out: Inhibition Rate at 10 nM (%); for inhibition at 0.5 µM: read-out: Inhibition Rate at 500 nM (%). On the procedure: as §1, §2, §3
Test [3] concerns MV-4-11. The description is as above. It counts as cell-based. The note with it: Homo sapiens, 96 hours; for inhibition at 0.01 µM: MV4-11, 10 nM, read-out: Inhibition Rate at 10 nM (%); for inhibition at 0.5 µM: MV4-11, 500 nM, read-out: Inhibition Rate at 500 nM (%). On the procedure:
as §1, §2, §3

The test system of test [4] is RPMI-8226. The description is as above. Type of test: cell-based. The note with it: Homo sapiens, 96 hours; for inhibition at 0.01 µM: 10 nM, read-out: Inhibition Rate at 10 nM (%); for inhibition at 0.5 µM: 500 nM, read-out: Inhibition Rate at 500 nM (%). On the procedure:
as §1, §2, §3

Test [5] has as its target T1, human Cereblon WT GST-tagged protein (Homo sapiens, UniProt Q96SW2).
T1 construct: purchased CISBIO 64BDCRBNPEH
Nature of the test: CRBN-binding affinity, HTRF (CEREBLON BINDING kit). Conditions: for inhibition at 0.5 µM: read-out: Inhibition Rate at 0.5 µM (%); for inhibition at 2 µM: read-out: Inhibition Rate at 2 µM (%). In short, it runs like this:
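GST-tagged human wild-type Cereblon is mixed with test compound (final 2 µM and 0.5 µM) plus an anti-GST europium antibody/thalidomide-Red tracer pair. Binding is read as HTRF displacement, with buffer-only blank wells.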
In general terms: TR-FRET usually uses a lanthanide donor and a delayed reading to cut background.

[6] abbreviates: Table I-8, SMARCA2/4 inhibitors.
Setting [7] is: MM.1S, 10 nM, 96 hours, Table I-11, RSK inhibitors.
The mark [8] stands for this setting: MM.1S, 500 nM, 96 hours, Table I-11, RSK inhibitors.

Read-outs that look alike come from different tables or passages of the source.

T1 sequence (Q96SW2 whole entry): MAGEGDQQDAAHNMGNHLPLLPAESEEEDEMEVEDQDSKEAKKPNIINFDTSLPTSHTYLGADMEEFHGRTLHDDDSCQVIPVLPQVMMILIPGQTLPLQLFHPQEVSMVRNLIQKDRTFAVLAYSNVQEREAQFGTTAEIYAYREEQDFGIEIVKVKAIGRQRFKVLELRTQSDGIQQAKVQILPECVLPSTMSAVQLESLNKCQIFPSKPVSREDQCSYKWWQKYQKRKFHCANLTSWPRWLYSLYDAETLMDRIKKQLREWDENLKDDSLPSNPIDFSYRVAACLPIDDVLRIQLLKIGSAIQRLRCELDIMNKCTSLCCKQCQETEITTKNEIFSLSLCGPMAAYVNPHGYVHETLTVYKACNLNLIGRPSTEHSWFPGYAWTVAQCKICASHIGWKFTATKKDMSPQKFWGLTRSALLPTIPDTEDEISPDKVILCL

By inhibition is commonly meant the change of the read-out against control, counted positive when it falls. On to `CC1(C)CCC(CN2CCN(c3ccc(C(=O)NS(=O)(=O)c4ccc(NCC5CCOCC5)c([N+](=O)[O-])c4)c(Oc4cnc5[nH]ccc5c4)c3)CC2)=C(c2ccc(Cl)cc2)C1` [ABT-199, Venetoclax, reference compound], for which, in test [1] (Table I-15, BCL-2 inhibitors), the inhibition at 0.01 µM is 5 to 10% and the inhibition at 0.5 µM was 5 to 10%.

Turning to `CC(C)CCN1c2nc(Nc3cc(F)c(O)c(F)c3)ncc2N(C)C(=O)C1C` (stereo not drawn) [BI-D1870, reference compound], the inhibition at 0.01 µM is 114% in test [2] (96 h); 0 to 5% in test [3] (Table I-11, RSK inhibitors); 10 to 20% in test [4] (Table I-11, RSK inhibitors). The inhibition at 0.5 µM in test [2] (96 h) was 20 to 30%; in test [3] (Table I-11, RSK inhibitors), 20 to 30%; in test [4] (Table I-11, RSK inhibitors), 10 to 20%.

As for `CNC(=O)c1ccc(Nc2ncc(C(F)(F)F)c(NCc3nccnc3N(C)S(C)(=O)=O)n2)cc1` [Defactinib, reference compound], the inhibition at 0.01 µM lay within 10 to 20% in test [2] (MM.1S, 10 nM, 96 hours, Table I-12, FAK inhibitors); 0 to 5% in test [3] (Table I-12, FAK inhibitors); 0 to 5% in test [1] (Table I-12, FAK inhibitors). For the same compound, the inhibition at 0.5 µM lay within 5 to 10% in test [2] (MM.1S, 500 nM, 96 hours, Table I-12, FAK inhibitors); 50 to 60% in test [3] (Table I-12, FAK inhibitors); 5 to 10% in test [1] (Table I-12, FAK inhibitors).

Turning to `Cc1cc(S(=O)(=O)N2CCN(Cc3ccc4c(c3)CN(C3CCC(=O)NC3=O)C4=S)CC2)ccc1Nc1ncc(Br)c(Nc2cccc(F)c2C(N)=O)n1` (stereo not drawn) [GT-08714, 2-((5-bromo-2-((4-((4-((2-(2,6-dioxopiperidin-3-yl)-1-thioxoisoindolin-5-yl)methyl)piperazin-1-yl)sulfonyl)-2-methylphenyl)amino)pyrimidin-4-yl)amino)-6-fluorobenzamide], the inhibition at 0.01 µM in test [2] (MM.1S, 10 nM, 96 hours, Table I-8, SMARCA2/4 inhibitors) lay within 30 to 40%; in test [4] (setting [6]), 30 to 40%. For the same compound, the inhibition at 0.5 µM in test [2] (MM.1S, 500 nM, 96 hours, Table I-8, SMARCA2/4 inhibitors) lay in the range of 50 to 60%; in test [4] (setting [6]) it was 40 to 50%; in test [5], 53 to 60%. Besides, in test [5], the inhibition at 2 µM lay within 60 to 80%.

In the case of `C[C@@H]1CNC(=O)c2cc3ccc(C(=O)Nc4cnn(Cc5ccc(N6CCN(Cc7ccc8c(c7)CN(C7CCC(=O)NC7=O)C8=S)CC6)cc5)c4)nc3n21` (stereo partly drawn) [GT-08777, (9R)-N-(1-(4-(4-((2-(2,6-dioxopiperidin-3-yl)-1-thioxoisoindolin-5-yl)methyl)piperazin-1-yl)benzyl)-1H-pyrazol-4-yl)-9-methyl-6-oxo-6,7,8,9-tetrahydropyrido[3',2':4,5]pyrrolo[1,2-a]pyrazine-2-carboxamide], the inhibition at 0.01 µM lay within 20 to 30% in test [2] (setting [7]); 20 to 30% in test [3] (Table I-11, RSK inhibitors); 0 to 5% in test [4] (Table I-11, RSK inhibitors). Moreover, the inhibition at 0.5 µM in test [2] (setting [8]) lay in the range of 50 to 60%; in test [3] (Table I-11, RSK inhibitors), 60 to 70%; in test [4] (Table I-11, RSK inhibitors) it was 40 to 50%; in test [5], 80 to 100%. Besides, the inhibition at 2 µM in test [5] was 60 to 80%.

With `C[C@@H]1CNC(=O)c2cc3ccc(C(=O)Nc4cnn(Cc5ccc(N6CCC(N7CCN(Cc8ccc9c(c8)CN(C8CCC(=O)NC8=O)C9=S)CC7)CC6)cc5)c4)nc3n21` (stereo partly drawn) [GT-08778, (9R)-N-(1-(4-(4-(4-((2-(2,6-dioxopiperidin-3-yl)-1-thioxoisoindolin-5-yl)methyl)piperazin-1-yl)piperidin-1-yl)benzyl)-1H-pyrazol-4-yl)-9-methyl-6-oxo-6,7,8,9-tetrahydropyrido[3',2':4,5]pyrrolo[1,2-a]pyrazine-2-carboxamide], the inhibition at 0.01 µM in test [2] (setting [7]) lay within 40 to 50%; in test [3] (Table I-11, RSK inhibitors) it was 50 to 60%; in test [4] (Table I-11, RSK inhibitors) it was 10 to 20%. Further, the inhibition at 0.5 µM in test [2] (setting [8]) was in the range of 80 to 100%; in test [3] (Table I-11, RSK inhibitors) it was 80 to 100%; in test [4] (Table I-11, RSK inhibitors) it was 50 to 60%; in test [5], 80 to 100%. Also, in test [5], the inhibition at 2 µM was 80 to 100%.

`CC1(C)CCC(c2ccc(Cl)cc2)=C(CN2CCN(c3ccc(C(=O)NS(=O)(=O)c4ccc(N[C@H](CCN5CCN(Cc6ccc7c(c6)CN(C6CCC(=O)NC6=O)C7=S)CC5)CSc5ccccc5)c(S(=O)(=O)C(F)(F)F)c4)cc3)CC2)C1` (stereo partly drawn) [GT-09415, 4-(4-((4'-chloro-4,4-dimethyl-3,4,5,6-tetrahydro-[1,1'-biphenyl]-2-yl)methyl)piperazin-1-yl)-N-((4-(((2R)-4-(4-((2-(2,6-dioxopiperidin-3-yl)-1-thioxoisoindolin-5-yl)methyl)piperazin-1-yl)-1-(phenylthio)butan-2-yl)amino)-3-((trifluoromethyl)sulfonyl)phenyl)sulfonyl)benzamide]: in test [1] (Table I-15, BCL-2 inhibitors), the inhibition at 0.01 µM was 30 to 40% and the inhibition at 0.5 µM lay within 80 to 100%. In test [5], the inhibition at 0.5 µM fell in the range of 53 to 60% and the inhibition at 2 µM lay in the range of 80 to 100%.

With `O=C1CCC(N2Cc3c(CN4CCN(c5ccc(-c6cc(F)c7c(c6)C(=O)N(C(C(=O)Nc6nccs6)c6ncn8c6CCC8)C7)cc5)CC4)cccc3C2=S)C(=O)N1` (stereo not drawn) [GT-09429, 2-(6,7-dihydro-5H-pyrrolo[1,2-c]imidazol-1-yl)-2-(6-(4-(4-((2-(2,6-dioxopiperidin-3-yl)-1-thioxoisoindolin-4-yl)methyl)piperazin-1-yl)phenyl)-4-fluoro-1-oxoisoindolin-2-yl)-N-(thiazol-2-yl)acetamide], in test [1] (Table I-3, EGFR inhibitors), the inhibition at 0.01 µM lay within 10 to 20% and the inhibition at 0.5 µM lay in the range of 70 to 80%.

Consider `Nc1nnc(-c2ccccc2O)cc1N1CCNCC1` [GTC00645], for which the inhibition at 0.01 µM in test [2] (96 h) was 15 to 20%; in test [3] (setting [6]), 10 to 15%; in test [4] (setting [6]), -5 to 0%. In addition, the inhibition at 0.5 µM in test [2] (96 h) is 15 to 20%; in test [3] (setting [6]), 10 to 15%; in test [4] (setting [6]) it was -5 to 0%.

With `Cc1ccc(NC(=O)c2ccc(CN3CCN(C)CC3)cc2)cc1Nc1nccc(-c2cccnc2)n1` [imatinib], the inhibition at 0.01 µM in test [3] (Table I-10, BCR-ABL inhibitors) was in the range of 0 to 5%; in test [4] (Table I-10, BCR-ABL inhibitors), 5 to 10%; in test [1] (Table I-10, BCR-ABL inhibitors), 5 to 10%. For the same compound, the inhibition at 0.5 µM in test [3] (Table I-10, BCR-ABL inhibitors) is 0 to 5%; in test [4] (Table I-10, BCR-ABL inhibitors), 10 to 20%; in test [1] (Table I-10, BCR-ABL inhibitors), 10 to 20%.
